Test results reported in ChEMBL document CHEMBL5223095, “Structure activity relationship of N-1 substituted 1,5-naphthyrid-2-one analogs of oxabicyclooctane-linked novel bacterial topoisomerase inhibitors as broad-spectrum antibacterial agents (Part-9)” (Bioorg Med Chem Lett, 2022).
≈ marks a conversion by molar mass, not a printed value.

Legend:
Type in all cases: functional
Escherichia coli = assay: Antibacterial activity against Escherichia coli ATCC 25922 assessed as bacterial growth inhibition by CLSI protocol agar-based assay
Staphylococcus aureus = assay: Antibacterial activity against methicillin-resistant Staphylococcus aureus OITII-971 assessed as bacterial growth inhibition by CLSI protocol agar-based assay
Streptococcus pneumoniae = assay: Antibacterial activity against Streptococcus pneumoniae IID553 assessed as bacterial growth inhibition by CLSI protocol agar-based assay
Enterococcus faecium = assay: Antibacterial activity against Vanomycin-resistant Enterococcus faecium assessed as bacterial growth inhibition by CLSI protocol agar-based assay
Pseudomonas aeruginosa = assay: Antibacterial activity against Pseudomonas aeruginosa PAO1 assessed as bacterial growth inhibition by CLSI protocol agar-based assay
Acinetobacter baumannii = assay: Antibacterial activity against Acinetobacter baumannii IID876 assessed as bacterial growth inhibition by CLSI protocol agar-based assay

Structure (SMILES)	MIC (Escherichia coli) [µg/mL]	MIC (Staphylococcus aureus) [µg/mL]	MIC (Streptococcus pneumoniae) [µg/mL]	MIC (Enterococcus faecium) [µg/mL]	MIC (Pseudomonas aeruginosa) [µg/mL]	MIC (Acinetobacter baumannii) [µg/mL]
COc1ccc2ncc(F)c(CCC34CCC(NCc5ccc6c(n5)NC(=O)CO6)(CC3)CO4)c2n1	1 (≈ 2.03 µM)	0.016 (≈ 0.0324 µM)	–	–	–	–
O=C1COc2ccc(CNC34CCC(C[C@]5(O)Cn6c(=O)ccc7ncc(F)c5c76)(CC3)OC4)nc2N1	4 (≈ 7.88 µM)	0.25 (≈ 0.493 µM)	–	–	–	–
O=c1ccc2ncc(F)c3c2n1C[C@@]3(O)CC12CCC(NCc3cc4c(cn3)OCCO4)(CC1)CO2	16 (≈ 32.4 µM)	0.5 (≈ 1.01 µM)	–	–	–	–
O=C1COc2ccc(CNC34CCC(CCc5c(F)cnc6ccc(=O)n(C/C=N/O)c56)(CC3)OC4)nc2N1	4 (≈ 7.45 µM)	0.25 (≈ 0.466 µM)	0.5 (≈ 0.932 µM)	4 (≈ 7.45 µM)	8 (≈ 14.9 µM)	2 (≈ 3.73 µM)
O=C(NC12CCC(CCc3c(F)cnc4ccc(=O)n(CCO)c34)(CC1)OC2)c1cc2c(cn1)OCCO2	> 32	1 (≈ 1.91 µM)	2 (≈ 3.81 µM)	16 (≈ 30.5 µM)	> 32	32 (≈ 61 µM)
O=C(O)Cn1c(=O)ccc2ncc(F)c(CCC34CCC(NCc5ccc6c(n5)NC(=O)CO6)(CC3)CO4)c21	> 64	16 (≈ 29.8 µM)	64 (≈ 119 µM)	> 64	> 64	> 64
O=C1COc2ccc(C(=O)NC34CCC(CCc5c(F)cnc6ccc(=O)n(CCO)c56)(CC3)OC4)nc2N1	16 (≈ 29.8 µM)	0.125 (≈ 0.233 µM)	1 (≈ 1.86 µM)	4 (≈ 7.44 µM)	32 (≈ 59.5 µM)	4 (≈ 7.44 µM)
CCOC(=O)Cn1c(=O)ccc2ncc(F)c(CCC34CCC(NCc5ccc6c(n5)NC(=O)CO6)(CC3)CO4)c21	8 (≈ 14.1 µM)	0.063 (≈ 0.111 µM)	1 (≈ 1.77 µM)	8 (≈ 14.1 µM)	32 (≈ 56.6 µM)	1 (≈ 1.77 µM)
O=c1ccc2ncc(F)c(CCC34CCC(NCc5cc6c(cn5)OCCC6)(CC3)CO4)c2n1CCO	8 (≈ 15.7 µM)	0.063 (≈ 0.124 µM)	0.25 (≈ 0.492 µM)	4 (≈ 7.86 µM)	> 64	1 (≈ 1.97 µM)
CC(C)(O)Cn1c(=O)ccc2ncc(F)c(CCC34CCC(NCc5ccc6c(n5)NC(=O)CO6)(CC3)CO4)c21	> 64	8 (≈ 14.5 µM)	64 (≈ 116 µM)	> 64	> 64	64 (≈ 116 µM)
O=C1COc2ccc(CNC34CCC(CCc5c(F)cnc6ccc(=O)n(CCO)c56)(CC3)OC4)nc2N1	2 (≈ 3.82 µM)	0.063 (≈ 0.12 µM)	0.5 (≈ 0.955 µM)	2 (≈ 3.82 µM)	8 (≈ 15.3 µM)	0.5 (≈ 0.955 µM)
CN(C)CCn1c(=O)ccc2ncc(F)c(CCC34CCC(NCc5ccc6c(n5)NC(=O)CO6)(CC3)CO4)c21	1 (≈ 1.82 µM)	0.5 (≈ 0.908 µM)	1 (≈ 1.82 µM)	16 (≈ 29.1 µM)	8 (≈ 14.5 µM)	0.5 (≈ 0.908 µM)
O=C1COc2ccc(CNC34CCC(CCc5c(F)cnc6ccc(=O)n(CCN7CCOCC7)c56)(CC3)OC4)nc2N1	> 16	1 (≈ 1.69 µM)	2 (≈ 3.37 µM)	16 (≈ 27 µM)	> 16	8 (≈ 13.5 µM)
N#CCn1c(=O)ccc2ncc(F)c(CCC34CCC(NCc5ccc6c(n5)NC(=O)CO6)(CC3)CO4)c21	1 (≈ 1.93 µM)	0.016 (≈ 0.0309 µM)	0.25 (≈ 0.482 µM)	2 (≈ 3.86 µM)	4 (≈ 7.71 µM)	0.25 (≈ 0.482 µM)
O=C(NC12CCC(CCc3c(F)cnc4ccc(=O)n(CCO)c34)(CC1)OC2)c1cc2c(cn1)OCCC2	> 32	0.5 (≈ 0.957 µM)	1 (≈ 1.91 µM)	16 (≈ 30.6 µM)	> 32	8 (≈ 15.3 µM)
